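Compound exposure: 48 hours, 5 concentrations, 96-well plates. TGI marks complete inhibition of growth.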
Columns and labels:
Assay in all cases: NCI tumour cell line growth inhibition, 48 h
[1] = test system: BT-549 breast
[2] = test system: MDA-N
[3] = test system: HOP-62 NSCLC
[4] = test system: SK-MEL-5 melanoma
[5] = test system: SK-OV-3 ovarian
[6] = test system: LOX IMVI melanoma
[7] = test system: T-47D breast
[8] = test system: RPMI-8226 leukemia
[9] = test system: SN12C renal
[10] = test system: NCI/ADR-RES ovarian
[11] = test system: SF-268 CNS
[12] = test system: KM12 colon
[13] = test system: NCI-H23 lung
[14] = test system: CCRF-CEM leukemia

SMILES | TGI [1] [µM] | TGI [2] [µM] | TGI [3] [µM] | TGI [4] [µM] | TGI [5] [µM] | TGI [6] [µM] | TGI [7] [µM] | TGI [8] [µM] | TGI [9] [µM] | TGI [10] [µM] | TGI [11] [µM] | TGI [12] [µM] | TGI [13] [µM] | TGI [14] [µM]
c1ncc(C23C4C5C6C4C2C6C53)[nH]1 (stereo unspecified) | > 100 | > 100 | > 100 | > 100 | > 100 | > 100 | > 100 | > 100 | > 100 | > 100 | > 100 | > 100 | > 100 | > 100
CCOC(=O)c1c(C)n(-c2ccc(C)cc2)c2c1cc(O)c1[nH]c3c(c12)CCCC3 | 26.2 | 46.6 | > 100 | 24.3 | > 100 | 30.2 | > 100 | 24.8 | > 100 | > 100 | 55.2 | 51.5 | 67 | 7.64
COC(=O)/C=C1/OC(c2ccccc2)=CC1=O | 32 | 34.1 | 44.7 | 51.3 | > 94.4 | 30 | 49.9 | 23.2 | 38.9 | 58.7 | 44.7 | 32.4 | 42.9 | > 61.2
[N-]=[N+]=NC1=C(N=[N+]=[N-])c2cccc3cccc(c23)C1=O | > 100 | > 100 | > 100 | > 100 | > 100 | > 100 | > 100 | > 100 | > 100 | > 100 | > 100 | > 100 | > 100 | > 100
CCOC(=O)/C(C#N)=N\Nc1ccc(-n2c(C)nc3ccc(Br)cc3c2=O)cc1 | > 100 | > 100 | > 100 | > 100 | > 100 | > 100 | > 100 | > 100 | > 100 | > 100 | > 100 | > 100 | > 100 | > 100
Cc1ccc2c(c1)C(=O)c1ccc(C)nc1C2=O | 92.8 | 31.4 | > 100 | 26.7 | > 100 | 75.6 | > 100 | > 100 | 59.2 | 67.3 | > 100 | > 100 | 58.9 | > 100
CCCCC[C@H]1CC=CC(=O)O1 | 20.3 | 23 | 45.3 | 21.3 | 39.7 | 18.1 | 30.9 | 19.3 | 23.8 | 27.1 | 22.3 | 13.9 | > 100 | 40.6
ClCc1nc2cc(Cl)ccc2o1 | 28.2 | 21.4 | 8.28 | 25.8 | 28.9 | 6.74 | 5.15 | 4.07 | 20.9 | 98.4 | 26.7 | 28.6 | 24.6 | > 25.7
COC(=O)[C@@H](COC(=O)/C=C/c1ccc(OC(C)=O)c(OC(C)=O)c1)NC(=O)/C=C/c1ccc(OC(C)=O)c(OC(C)=O)c1 | > 100 | 50.3 | 75.5 | 30 | > 100 | 38.1 | 34.9 | > 100 | 46.7 | > 100 | > 100 | 94.6 | > 100 | > 100
COc1ccc(C(c2ccccc2)N2C(=O)CCC2C(=O)O)cc1OC (stereo unspecified) | > 100 | > 100 | > 100 | > 100 | > 100 | > 100 | > 100 | > 100 | > 100 | > 100 | > 100 | > 100 | > 100 | > 100
CN(N=O)C(N)=NC(=O)c1ccccc1 | > 100 | > 100 | > 100 | > 100 | > 100 | > 100 | > 100 | > 100 |  | > 100 | > 100 | > 100 | > 100 | > 100
CC(=O)N(CCc1ccccc1)C(C)(C#N)c1ccccc1 (stereo unspecified) | > 100 | > 100 | > 100 | > 100 | > 100 | > 100 | > 100 | > 100 | > 100 | > 100 | > 100 | > 100 | > 100 | > 100
NC(=S)NS(=O)(=O)c1ccc(F)cc1 | > 100 | > 100 | > 100 | > 100 | > 100 | > 100 | > 100 | > 100 | > 100 | > 100 | > 100 | > 100 | > 100 | > 100
COC(=O)/C=C(\S/C(=C(/c1ccccc1)n1cc(C(=O)OC)c(C(=O)OC)n1)c1ccccc1)C(=O)OC | 98.7 | 37.9 | 31 | 44.5 | > 100 | 21.4 | 14.1 | 26.9 | 40.9 | 89.1 | 32.8 | > 100 | 38 | 31.3
CSc1nc2ccccc2c(=O)n1-c1cccc(C)c1 | > 100 | 72.5 | > 100 | 66.2 | > 100 | > 100 | > 100 | > 100 | > 100 | > 100 | > 100 | > 100 | > 100 | > 100
O=C(N/N=C1\CCc2ccccc21)N/N=C1\CCc2ccccc21 | > 100 | 30 | > 100 | > 100 | > 100 | > 100 | > 100 | > 100 | > 100 | > 100 | > 100 | > 100 | > 100 | > 100
CCCN=C1S/C(=C/c2ccc(OC)c(OC)c2)C(=O)N1c1ccccc1 | > 100 | > 100 | 15.2 | > 100 | 37.8 | > 100 | > 100 | > 100 | > 100 | > 100 | > 100 | > 100 | > 100 | > 100
O=Cc1cc(O)ccc1Br | > 83.4 | 25.6 | > 96.2 | 98.2 | > 100 | 33.4 | > 100 | > 36 | > 100 | > 76.2 | > 100 | > 81.6 | 71 | 15.5
Nc1nc(SCC(=O)c2ccccc2)nc2nc3c(c(-c4ccccc4)c12)CCCC3 | > 100 | > 100 | > 100 | > 100 | 76.8 | 61.7 | > 100 | > 100 | > 100 | > 100 | 61.5 | > 100 | > 100 | > 100
Nc1nc(Cl)cc(NCC2(CO)CC(O)C2)n1 (stereo unspecified) | > 100 | > 100 | > 100 | > 100 | > 100 | > 100 | > 100 | > 100 | > 100 | > 100 | > 100 | > 100 | > 100 | > 100
COc1cc(/C=C2\N=C(c3ccccc3)N(/N=C/c3cc4cc(C)ccc4nc3Cl)C2=O)ccc1O | > 100 | 32 | > 100 | > 100 | > 100 | > 100 | > 100 | 80.8 | 77.1 | > 100 | > 100 | > 100 |  | 36
O=C(O)C1CCCCN1CCc1c[nH]c2ccccc12 (stereo unspecified) | > 100 | > 100 | > 100 |  | > 100 | > 100 | > 100 | > 100 | > 100 | > 100 | > 100 | > 100 | > 100 | > 100
CSc1ccc(C=C2N=C(c3ccccc3)N(c3cc(C(=O)c4ccccc4)ccc3N3C(=O)/C(=C/c4ccc(SC)cc4)N=C3c3ccccc3)C2=O)cc1 | > 100 | > 100 | > 100 | > 100 | > 100 | > 100 | > 100 | > 100 | > 100 | > 100 | > 100 | > 100 |  | 62.4
COC1(CCO)CC=CCC1(CCO)OC (stereo unspecified) | > 100 | > 100 | > 100 | > 100 | > 100 | > 100 | > 100 | > 100 | > 100 | > 100 | > 100 | > 100 |  | > 100
